The test system of one assay is PBMC. Nature of the assay: cells. Conditions: Homo sapiens, 48 h, read-out: Cell TiterGlo Viability (EC50, μM). Type of assay: cell-based. The method, then:
PBMC's are isolated from whole blood buffy coats by first combining fresh buffy coats with equal volumes of phosphate buffered saline. Thirty five mL of PBS/buffy coat solution are then gently overlaid onto 15 mL of Ficoll in 50 mL conical tubes. Following centrifugation for 30 minutes at 500×g (with slow acceleration and deceleration) the top layer of plasma is discarded and the layer of cells along the Ficoll interface is collected and pooled. […] Tubes are spun for 10 minutes at 500×G (with slow acceleration and deceleration), the media is removed by aspiration, and the wash step is repeated.
Cells are spun down for 5 minutes and the cell pellet is resuspended in complete media. Clumps of cells are broken up by running the cell solution through a 23 gauge syringe needle and a 40 μM cell strainer.
Equal volumes of Cell TITERGLO® cell viability testing reagent (Promega Cat #G7573) are added to the cells remaining in the plates, and following a fifteen minute incubation with gentle shaking at room temperature luminescence is measured with the Envision multi-label plate reader. Percent cell death is calculated by setting 100% activity (cell death) to zero luminescence units and minimum activity (max number of viable cells) as the average luminescence units of wells containing stimulants alone and no added compound. IC50's are calculated using a standard four parameter fit.
A general note: In ATP-based viability assays light output follows the ATP content of the culture.

The test system of assay [1] is anti-CD3/anti-CD28/IL-23 stimulated IL-17 secretion in PBMC's. The assay is described as follows: PBMC IL-17 secretion ELISA. Type of assay: cell-based. To be noted: Homo sapiens, anti-CD3/anti-CD28/IL-23 stimulation, 48 hours, mean ± standard deviation, read-out: hPBMC IL-17 ELISA (EC50). The method, then: PBMC's are isolated from whole blood buffy coats by first combining fresh buffy coats with equal volumes of phosphate buffered saline. Thirty five mL of PBS/buffy coat solution are then gently overlaid onto 15 mL of Ficoll in 50 mL conical tubes. Following centrifugation for 30 minutes at 500×g (with slow acceleration and deceleration) the top layer of plasma is discarded and the layer of cells along the Ficoll interface is collected and pooled. Each 250 mL tube is filled to the top with room temperature RPMI-1640 media. Tubes are spun for 10 minutes at 500×G (with slow acceleration and deceleration), the media is removed by aspiration, and the wash step is repeated. Cells are resuspended in ice cold Recovery Cell Culture Freezing Medium from Life Technologies (Catalog number 12648-010) on ice. The cell concentration is adjusted to 66.7 million cells/mL. Cell are slow frozen at −1° C./minute in vials with 100 million cells and stored in liquid nitrogen.
PBMC are brought out of thaw by resuspending with 1 mL of complete media (RPMI-1640 containing 30 mM HEPES, 100 units/mL penicillin, 100 μg/mL streptomycin, 3.25 mM L-Glutamine, 0.2 μM beta-mercaptoethanol, and 10% FBS) followed by the drop wise addition of 2 mL, 4 mL, 8 mL, and 16 mL of complete media with gentle swirling. Cells are spun down for 5 minutes and the cell pellet is resuspended in complete media. Clumps of cells are broken up by running the cell solution through a 23 gauge syringe needle and a […] cell strainer. One hundred thousand cells per well are added to 384 well polystyrene tissue culture treated flat bottomed plates in a total of 30 μL. Stimulation cocktail containing anti-human CD3 antibody, anti-human CD28 antibody, IL-23 and compounds prepared in complete media are added to the cells simultaneously in a total volume of 30 μL. The final concentration of added stimulants is 160 ng/mL, 500 ng/mL, and 5 ng/mL for anti-CD3 antibody, anti-CD28 antibody, and IL-23 respectively and 0.3% for DMSO. Plates are sealed with AERASEAL® sealing film and incubated for 48 hours at 37° C., 95% humidity, and 5% CO2.
Following the incubation period, the plates are spun at 200×g for five minutes. Supernatants are diluted 1:1 with equal volume 1% BSA/PBS and tested for IL-17 with a human IL-17 ELISA kit from R&D system (catalog #D317E) according to the protocol provided with the kit with one exception—the colorimetric substrate OPD (o-phenylenediamine dihydrochloride, Sigma Cat #P6912) is used instead of the substrate supplied in the kit. Absorbance at 492 nm is measured with the Envision multi-label plate reader. A492 values are converted to concentration of IL-17 based on the IL-17 standard curve as shown below: pg/mL IL-17=EC50*[[(Top-Bottom)/(A492-Bottom)]-1](1/-Hill). IC50's for inhibition of IL-17 secretion is calculated based on converted values using a standard 4-parameter fit with maximum inhibition determined from the average values of wells with no added stimulants nor compounds and minimum inhibition from the average values of wells with stimulants alone and no added compound.
(ELISA stands for enzyme-linked immunosorbent assay.)

Assay [2] has as its target human RAR-related orphan receptor beta (hRORβ) (Homo sapiens (Human), UniProt Q92753). Nature of the assay: RORβ receptor-ligand competition binding assay. To be noted: His-tagged hRORβ; mean ± standard deviation; read-out: RORb Ki. The method, then:
(§1) His-tagged human RAR-related orphan receptor alpha (hRORα), human RAR-related orphan receptor beta (hRORβ), and human RAR-related orphan receptor gamma (hRORγ) are used for receptor-ligand competition binding assays to determine Ki values. Typical procedures are provided below.
(§2) The final wells contain 20 μg/mL aprotinin and 20 μg/mL leupeptin and 10 μM Pefabloc. Typically, receptor binding assays include radio-labeled ligands, such as 7 nM [^3H]-25-hydroxycholesterol for alpha binding, 20 nM [^3H]-3-[[4-[[3-(2,6-dichlorophenyl)-5-isopropyl-isoxazol-4-yl]methoxy]-N,2-dimethyl-anilino]methyl]benzoic acid for beta binding, and 6 nM [3H]-25-hydroxycholesterol for gamma binding, and 0.5 μg RORα receptor, 0.03 μg RORβ receptor, or 0.13 μg RORγ receptor per well. Assays are typically run in 96-well format. […] Plates are mixed for 30 minutes on an orbital shaker at room temperature. After an incubation of 4 hours, plates are read in a Wallac MICROBETA® counter.
(§3) The data are used to calculate an estimated IC50 using a four parameter logistic fit. The Kd for [^3H]-25-hydroxycholesterol for RORa and RORg, and [^3H]-3-[[4-[[3-(2,6-dichlorophenyl)-5-isopropyl-isoxazol-4-yl]methoxy]-N,2-dimethyl-anilino]methyl]benzoic acid for RORb binding, is determined by saturation binding. The IC50 values for compounds are converted to Ki using the Cheng-Prushoff equation.

Assay [3] has as its system GPI induced arthritis in DBA/1 mice. Nature of the assay: Glucose-6-phosphate isomerase (GPI) induced arthritis model. Conditions: 100 mg/Kg orally once daily. Type of assay: in vivo, mouse. The method, then: The GPI induced arthritis model is adapted from K. Iwanami et al Arthritis Rheumatism 58, 754-763, 2008 and D. Schubert et al. J Immunology 172, 4503-4509, 2004. Mice (8-9 week old male DBA/1 mice) (Harlan) are randomly assigned into treatment groups based on body weights collected on the day of immunization (day 0). On the day of immunization (day 0), a 1:1 (v:v) mixture of recombinant human GPI (diluted to 4 mg/mL in PBS, Gibco) and complete Freund's adjuvant (CFA, Sigma) is mixed on a high speed homogenizer (Omni) for 40 minutes in a cold room. A final concentration of 2 mg/mL GPI is achieved in the emulsion. Mice are injected at the base of the tail (2 sites of injection, subcutaneously, 100 μL each site) with the GPI emulsion. Test compounds are dosed orally starting on the same day as immunization (day 0). Starting on day 0, each paw is scored for severity of joint swelling based on a 0 to 3 scoring system (See K. Iwanami et al Arthritis Rheumatism 58, 754-763, 2008. The clinical score represents the total score of all 4 paws (maximum score=12). Clinical scores are assessed on days 0, 2, 4, 7, 8, 9, 10, 11, 12, 14, 16, 18, and 21.
The AUC is calculated by a trapezoid method for clinical score over time from the day of immunization (day 0) to day 21. Test p-values were derived from Student's t-test.

In assay [4] the target is human RAR-related orphan receptor alpha (hRORα) (Homo sapiens (Human), UniProt P35398). The assay is described as follows: RORα receptor-ligand competition binding assay. To be noted: His-tagged hRORα, [3H]-25-hydroxycholesterol; mean ± standard deviation; read-out: RORa Ki. The method, then: as §1, §2, §3
human RAR-related orphan receptor alpha (hRORα), sequence (P35398 whole entry, the tested form may be a part): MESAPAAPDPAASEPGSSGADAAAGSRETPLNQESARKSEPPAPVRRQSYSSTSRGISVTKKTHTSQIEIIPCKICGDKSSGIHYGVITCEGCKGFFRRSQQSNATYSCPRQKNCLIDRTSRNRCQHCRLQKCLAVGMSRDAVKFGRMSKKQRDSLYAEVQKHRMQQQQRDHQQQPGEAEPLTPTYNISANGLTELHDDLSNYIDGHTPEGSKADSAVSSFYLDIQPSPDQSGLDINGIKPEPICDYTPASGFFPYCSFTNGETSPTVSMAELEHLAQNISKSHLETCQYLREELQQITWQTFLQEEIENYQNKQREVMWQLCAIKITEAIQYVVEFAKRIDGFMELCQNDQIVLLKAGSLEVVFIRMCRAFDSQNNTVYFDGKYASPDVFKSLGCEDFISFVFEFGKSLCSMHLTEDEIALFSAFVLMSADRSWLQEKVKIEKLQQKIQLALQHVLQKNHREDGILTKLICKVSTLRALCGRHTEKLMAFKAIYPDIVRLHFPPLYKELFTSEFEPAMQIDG
In assay [5] the target is human RORg ligand binding domain fused to yeast GAL4 DNA binding domain (Homo sapiens (Human), UniProt P51449). The assay is described as follows: HEK293 RORg GAL4 receptor-reporter assay. Type of assay: cell-based. To be noted: HEK293 cells, RORg-GAL4/pGL4.31 luciferase, 18 hours; mean ± standard deviation; read-out: hIC50. On the technique in general: Reporter assays use an easily measured gene product as a stand-in for the process of interest.
human RORg ligand binding domain fused to yeast GAL4 DNA binding domain, sequence (P51449 269-508): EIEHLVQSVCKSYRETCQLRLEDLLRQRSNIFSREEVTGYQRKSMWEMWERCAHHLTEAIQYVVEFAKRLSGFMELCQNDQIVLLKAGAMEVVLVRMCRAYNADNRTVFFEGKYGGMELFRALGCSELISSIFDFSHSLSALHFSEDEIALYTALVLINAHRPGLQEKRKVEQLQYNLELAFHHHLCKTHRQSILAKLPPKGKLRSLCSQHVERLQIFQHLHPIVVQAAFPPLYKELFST

The target of assay [6] is human RAR-related orphan receptor gamma (hRORγ) (Homo sapiens (Human), UniProt P51449). Nature of the assay: RORγ receptor-ligand competition binding assay. To be noted: His-tagged hRORγ, [3H]-25-hydroxycholesterol; mean ± standard deviation; read-out: RORg Ki. The method, then: as §1, §2, §3
human RAR-related orphan receptor gamma (hRORγ), sequence (P51449 whole entry): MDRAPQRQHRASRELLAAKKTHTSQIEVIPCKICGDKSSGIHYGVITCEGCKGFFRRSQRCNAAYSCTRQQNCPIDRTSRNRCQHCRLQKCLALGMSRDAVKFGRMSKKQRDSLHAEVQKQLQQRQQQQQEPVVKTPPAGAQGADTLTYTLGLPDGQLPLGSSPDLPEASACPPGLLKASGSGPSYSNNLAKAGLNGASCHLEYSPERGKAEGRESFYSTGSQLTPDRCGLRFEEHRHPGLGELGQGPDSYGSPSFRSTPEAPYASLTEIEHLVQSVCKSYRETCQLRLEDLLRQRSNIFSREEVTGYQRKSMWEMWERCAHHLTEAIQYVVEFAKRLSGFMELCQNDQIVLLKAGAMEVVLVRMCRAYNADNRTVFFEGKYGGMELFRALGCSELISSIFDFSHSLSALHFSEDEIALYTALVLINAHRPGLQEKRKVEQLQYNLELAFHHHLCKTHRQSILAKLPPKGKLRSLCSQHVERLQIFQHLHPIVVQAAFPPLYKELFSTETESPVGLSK

human RAR-related orphan receptor beta (hRORβ), sequence (Q92753 whole entry): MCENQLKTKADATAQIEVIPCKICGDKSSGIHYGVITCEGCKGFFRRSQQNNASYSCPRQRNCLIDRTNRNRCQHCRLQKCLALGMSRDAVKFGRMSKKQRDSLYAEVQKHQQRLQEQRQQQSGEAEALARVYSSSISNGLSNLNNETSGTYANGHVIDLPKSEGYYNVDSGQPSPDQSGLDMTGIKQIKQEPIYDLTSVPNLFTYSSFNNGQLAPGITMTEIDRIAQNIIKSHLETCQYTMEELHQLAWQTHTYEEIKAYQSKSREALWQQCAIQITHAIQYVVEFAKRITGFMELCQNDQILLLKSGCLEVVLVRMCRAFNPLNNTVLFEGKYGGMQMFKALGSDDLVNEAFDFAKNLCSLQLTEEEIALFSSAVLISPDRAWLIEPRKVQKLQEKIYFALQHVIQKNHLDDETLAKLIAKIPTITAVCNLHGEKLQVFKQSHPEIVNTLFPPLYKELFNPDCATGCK

As to `CCS(=O)(=O)c1ccc(CNC(=O)c2cc3c(s2)C2(CCN(C(C)c4cnc(C(F)(F)F)s4)CC2)O[C@@H](C)C3)nc1` (single isomer, unassigned; isomer 2) [Example 55, (5′S)-N-{[5-(Ethylsulfonyl)pyridin-2-yl]methyl}-5′-methyl-1-{1-[2-(trifluoromethyl)-1,3-thiazol-5-yl]ethyl}-4′,5′-dihydrospiro[piperidine-4,7′-thieno[2,3-c]pyran]-2′-carboxamide isomer 2], the EC50 (in general, the midpoint of the concentration-response curve) with PBMC is above 1 µM; in assay [1] it was 12.6 ± 8.1 nM. Further, in assay [2], the Ki – broadly, the equilibrium dissociation constant of an inhibitor or competing ligand from its target – is above 12500 nM. Further, in assay [3], the “severity of paw swelling and mean clinical scores compared to the vehicle group” value was “reduces severity of paw swelling and maintains lower mean clinical scores”. The “reduction in clinical score AUC” value in assay [3] (compared to the vehicle group) is given as 94%. Besides, in assay [3] (day 0 to day 21, male DBA/1 mice), the “Clinical Score AUC (mean ± SEM)” value worked out at 7.50 ± 2.08.
Turning to `CCS(=O)(=O)c1ccc(CNC(=O)c2cc3c(s2)C2(CCN(C(C)c4ccc(C(F)(F)F)nc4)CC2)OC(C)C3)nc1` (single isomer, unassigned; isomer 2) [Example 46, N-{[5-(Ethylsulfonyl)pyridin-2-yl]methyl}-5′-methyl-1-{1-[6-(trifluoromethyl)pyridin-3-yl]ethyl}-4′,5′-dihydrospiro[piperidine-4,7′-thieno[2,3-c]pyran]-2′-carboxamide isomer 2], the EC50 with PBMC is above 1 µM; in assay [1] it was 24.5 ± 11.9 nM. Moreover, in assay [4], the Ki was above 20400 nM.
With `CCS(=O)(=O)c1ccc(CNC(=O)c2cc3c(s2)C2(CCN([C@@H](C)c4ccc(C#N)cc4)CC2)OCC3)cc1` [Example 64, 1-[(1S)-1-(4-Cyanophenyl)ethyl]-N-[4-(ethylsulfonyl)benzyl]-4′,5′-dihydrospiro[piperidine-4,7′-thieno[2,3-c]pyran]-2′-carboxamide], the EC50 with PBMC was above 3 µM. Further, the Ki in assay [2] is above 22700 nM.
In the same order, the values of `CCS(=O)(=O)c1ccc(CNC(=O)c2cc3c(s2)C2(CCN([C@H](C)c4cnc(C(F)(F)F)nc4)CC2)O[C@@H](C)C3)cc1` [Example 16, (5′S)—N-[4-(Ethylsulfonyl)benzyl]-5′-methyl-1-{(1R)-1-[2-(trifluoromethyl)pyrimidin-5-yl]ethyl}-4′,5′-dihydrospiro[piperidine-4,7′-thieno[2,3-c]pyran]-2′-carboxamide] are above 1 µM and above 12500 nM.
On to `CCS(=O)(=O)c1ccc(CNC(=O)c2cc3c(s2)C2(CCN(C(C)c4cnc(C(F)(F)F)nc4C)CC2)O[C@@H](C)C3)nc1` (single isomer, unassigned; isomer 2) [Example 69, (5′S)-N-{[5-(Ethylsulfonyl)pyridin-2-yl]methyl}-5′-methyl-1-{1-[4-methyl-2-(trifluoromethyl)pyrim-idin-5-yl]ethyl}-4′,5′-dihydrospiro[piperidine-4,7′-thieno[2,3-c]pyran]-2′-carboxamide isomer 2], for which the EC50 in the assay with PBMC is above 1 µM; in assay [1] it was 30 ± 18.5 nM. Also, the IC50 in assay [5] is 15.4 ± 13.4 nM.
Consider `CCS(=O)(=O)c1ccc(CNC(=O)c2cc3c(s2)C2(CCN(Cc4ccc(-c5ncon5)cc4F)CC2)O[C@@H](C)C3)nc1` [Example 25, (5′S)-N-{[5-(Ethylsulfonyl)pyridin-2-yl]methyl}-1-[2-fluoro-4-(1,2,4-oxadiazol-3-yl)benzyl]-5′-methyl-4′,5′-dihydrospiro[piperidine-4,7′-thieno[2,3-c]pyran]-2′-carboxamide], for which the EC50 in the assay with PBMC is above 1 µM; in assay [1], 30.8 ± 25.7 nM. For the same molecule, in assay [6], the Ki amounted to 6.04 ± 1.19 nM. Moreover, in assay [5], the IC50 came out at 16.2 ± 9.7 nM.
Regarding `CCS(=O)(=O)c1ccc(CNC(=O)c2cc3c(s2)C2(CCN(C(C)c4cnc(C(F)(F)F)nc4C)CC2)O[C@@H](C)C3)cc1` (single isomer, unassigned; isomer 1) [Example 66, (5′S)-N-[4-(Ethylsulfonyl)benzyl]-5′-methyl-1-{1-[4-methyl-2-(trifluoromethyl)pyrim-idin-5-yl]ethyl}-4′,5′-dihydrospiro[piperidine-4,7′-thieno[2,3-c]pyran]-2′-carboxamide isomer 1], the EC50 in the assay on PBMC was above 1 µM; in assay [1], 13.3 ± 4.7 nM. The IC50 in assay [5] is 31.4 ± 11.2 nM.

Values taken from patent publication US11008336B2, “Compounds useful for inhibiting RORγt” (Eli Lilly and Company, priority 2017, dated 2021).
